System: mongrel dogs
Experiment: circulatory-pharmacological effectiveness on the narcotised dog, intravenous administration
Type: in vivo

SMILES: Nc1ncnc2c1ncn2[C@H]1CO[C@H]2[C@@H]1OC[C@@H]2O[N+](=O)[O-] [1c/2c, 5-(9-Adenyl)-5-desoxy-1.4;3.6-dianhydro-L-iditol 2-nitrate]
- APdiast: diastolic aorta pressure (40 min after i.v. 1 mg/kg): 81.0 mm.Hg
- APsyst: systolic aorta pressure (40 min after i.v. 1 mg/kg): 126.6 mm.Hg
- BFFem: blood flow in the A. femoralis, referred to 20 kg. body weight (40 min after i.v. 1 mg/kg): 46.3 mL/min
- HF: heart frequency (40 min after i.v. 1 mg/kg): 120.7 min⁻¹
- HLL: heart capacity left, referred to 20 kg. body weight (40 min after i.v. 1 mg/kg): 0.76 W
- HLR: heart capacity right, referred to 20 kg. body weight (40 min after i.v. 1 mg/kg): 89.3 mW
- HZV: heart minute volume, referred to 20 kg. body weight (40 min after i.v. 1 mg/kg): 3.72 L/min
- LVEDP: end diastolic pressure in the left ventricle (40 min after i.v. 1 mg/kg): 4.41 mm.Hg
- PAP: average pressure in the A. pulmonalis (40 min after i.v. 1 mg/kg): 14.1 ±1.8 mm.Hg
- PRA: pressure in the right atrium (40 min after i.v. 1 mg/kg): 3.37 mm.Hg
- SV: beat volume, referred to 20 kg. body weight (40 min after i.v. 1 mg/kg): 32.7 mL
- WAP: pulmonalis resistance, referred to 20 kg. body weight (40 min after i.v. 1 mg/kg): 0.35 U
- WFem: femoralis resistance, referred to 20 kg. body weight (40 min after i.v. 1 mg/kg): 0.27 KU
- WTP: total peripheral resistance, referred to 20 kg. body weight (40 min after i.v. 1 mg/kg): 3.34 U
- dp/dt: rate of pressure increase in the left ventricle (40 min after i.v. 1 mg/kg): 2137.5 mm.Hg/sec.
- APdiast: diastolic aorta pressure (50 min after i.v. 1 mg/kg): 83.4 mm.Hg
- APsyst: systolic aorta pressure (50 min after i.v. 1 mg/kg): 131.2 mm.Hg
- BFFem: blood flow in the A. femoralis, referred to 20 kg. body weight (50 min after i.v. 1 mg/kg): 50.6 mL/min
- HF: heart frequency (50 min after i.v. 1 mg/kg): 118.7 min⁻¹
- HLL: heart capacity left, referred to 20 kg. body weight (50 min after i.v. 1 mg/kg): 0.75 W
- HLR: heart capacity right, referred to 20 kg. body weight (50 min after i.v. 1 mg/kg): 83.6 mW
- HZV: heart minute volume, referred to 20 kg. body weight (50 min after i.v. 1 mg/kg): 3.55 L/min
- LVEDP: end diastolic pressure in the left ventricle (50 min after i.v. 1 mg/kg): 4.69 mm.Hg
- PAP: average pressure in the A. pulmonalis (50 min after i.v. 1 mg/kg): 13.9 ±1.9 mm.Hg
- PRA: pressure in the right atrium (50 min after i.v. 1 mg/kg): 3.43 mm.Hg
- SV: beat volume, referred to 20 kg. body weight (50 min after i.v. 1 mg/kg): 32.0 mL
- WAP: pulmonalis resistance, referred to 20 kg. body weight (50 min after i.v. 1 mg/kg): 0.34 U
- WFem: femoralis resistance, referred to 20 kg. body weight (50 min after i.v. 1 mg/kg): 0.26 KU
- WTP: total peripheral resistance, referred to 20 kg. body weight (50 min after i.v. 1 mg/kg): 3.61 U
- dp/dt: rate of pressure increase in the left ventricle (50 min after i.v. 1 mg/kg): 2118.5 mm.Hg/sec.
- APdiast: diastolic aorta pressure (60 min after i.v. 1 mg/kg): 87.6 mm.Hg
- APsyst: systolic aorta pressure (60 min after i.v. 1 mg/kg): 133.1 mm.Hg
- BFFem: blood flow in the A. femoralis, referred to 20 kg. body weight (60 min after i.v. 1 mg/kg): 50.4 mL/min
- HF: heart frequency (60 min after i.v. 1 mg/kg): 114.2 min⁻¹
- HLL: heart capacity left, referred to 20 kg. body weight (60 min after i.v. 1 mg/kg): 0.79 W
- HLR: heart capacity right, referred to 20 kg. body weight (60 min after i.v. 1 mg/kg): 89.5 mW
- HZV: heart minute volume, referred to 20 kg. body weight (60 min after i.v. 1 mg/kg): 3.73 L/min
- LVEDP: end diastolic pressure in the left ventricle (60 min after i.v. 1 mg/kg): 4.78 mm.Hg
- PAP: average pressure in the A. pulmonalis (60 min after i.v. 1 mg/kg): 14.1 ±2.0 mm.Hg
- PRA: pressure in the right atrium (60 min after i.v. 1 mg/kg): 3.37 mm.Hg
- SV: beat volume, referred to 20 kg. body weight (60 min after i.v. 1 mg/kg): 35.6 mL
- WAP: pulmonalis resistance, referred to 20 kg. body weight (60 min after i.v. 1 mg/kg): 0.33 U
- WFem: femoralis resistance, referred to 20 kg. body weight (60 min after i.v. 1 mg/kg): 0.26 KU
- WTP: total peripheral resistance, referred to 20 kg. body weight (60 min after i.v. 1 mg/kg): 3.46 U
- dp/dt: rate of pressure increase in the left ventricle (60 min after i.v. 1 mg/kg): 2118.5 mm.Hg/sec.
- APdiast: diastolic aorta pressure (90 min after i.v. 1 mg/kg): 87.6 mm.Hg
- APsyst: systolic aorta pressure (90 min after i.v. 1 mg/kg): 136.9 mm.Hg
- BFFem: blood flow in the A. femoralis, referred to 20 kg. body weight (90 min after i.v. 1 mg/kg): 50.8 mL/min
- HF: heart frequency (90 min after i.v. 1 mg/kg): 107.5 min⁻¹
- HLL: heart capacity left, referred to 20 kg. body weight (90 min after i.v. 1 mg/kg): 0.82 W
- HLR: heart capacity right, referred to 20 kg. body weight (90 min after i.v. 1 mg/kg): 91.5 mW
- HZV: heart minute volume, referred to 20 kg. body weight (90 min after i.v. 1 mg/kg): 3.77 L/min
- LVEDP: end diastolic pressure in the left ventricle (90 min after i.v. 1 mg/kg): 5.25 mm.Hg
- PAP: average pressure in the A. pulmonalis (90 min after i.v. 1 mg/kg): 14.5 ±2.1 mm.Hg
- PRA: pressure in the right atrium (90 min after i.v. 1 mg/kg): 3.85 mm.Hg
- SV: beat volume, referred to 20 kg. body weight (90 min after i.v. 1 mg/kg): 37.1 mL
- WAP: pulmonalis resistance, referred to 20 kg. body weight (90 min after i.v. 1 mg/kg): 0.32 U
- WFem: femoralis resistance, referred to 20 kg. body weight (90 min after i.v. 1 mg/kg): 0.27 KU
- WTP: total peripheral resistance, referred to 20 kg. body weight (90 min after i.v. 1 mg/kg): 3.59 U
- dp/dt: rate of pressure increase in the left ventricle (90 min after i.v. 1 mg/kg): 2081.2 mm.Hg/sec.
- APdiast: diastolic aorta pressure (120 min after i.v. 1 mg/kg): 93.7 mm.Hg
- APsyst: systolic aorta pressure (120 min after i.v. 1 mg/kg): 143.4 mm.Hg
- BFFem: blood flow in the A. femoralis, referred to 20 kg. body weight (120 min after i.v. 1 mg/kg): 58.6 mL/min
- HF: heart frequency (120 min after i.v. 1 mg/kg): 98.7 min⁻¹
- HLL: heart capacity left, referred to 20 kg. body weight (120 min after i.v. 1 mg/kg): 0.89 W
- HLR: heart capacity right, referred to 20 kg. body weight (120 min after i.v. 1 mg/kg): 98.7 mW
- HZV: heart minute volume, referred to 20 kg. body weight (120 min after i.v. 1 mg/kg): 3.85 L/min
- LVEDP: end diastolic pressure in the left ventricle (120 min after i.v. 1 mg/kg): 6.37 mm.Hg
- PAP: average pressure in the A. pulmonalis (120 min after i.v. 1 mg/kg): 15.1 ±2.3 mm.Hg
- PRA: pressure in the right atrium (120 min after i.v. 1 mg/kg): 3.94 mm.Hg
- SV: beat volume, referred to 20 kg. body weight (120 min after i.v. 1 mg/kg): 40.0 mL
- WAP: pulmonalis resistance, referred to 20 kg. body weight (120 min after i.v. 1 mg/kg): 0.30 U
- WFem: femoralis resistance, referred to 20 kg. body weight (120 min after i.v. 1 mg/kg): 0.25 KU
- WTP: total peripheral resistance, referred to 20 kg. body weight (120 min after i.v. 1 mg/kg): 3.72 U
- dp/dt: rate of pressure increase in the left ventricle (120 min after i.v. 1 mg/kg): 2043.7 mm.Hg/sec.
- APdiast: diastolic aorta pressure (150 min after i.v. 1 mg/kg): 94.7 mm.Hg
- APsyst: systolic aorta pressure (150 min after i.v. 1 mg/kg): 147.2 mm.Hg
- BFFem: blood flow in the A. femoralis, referred to 20 kg. body weight (150 min after i.v. 1 mg/kg): 58.2 mL/min
- HF: heart frequency (150 min after i.v. 1 mg/kg): 97.5 min⁻¹
- HLL: heart capacity left, referred to 20 kg. body weight (150 min after i.v. 1 mg/kg): 0.91 W
- HLR: heart capacity right, referred to 20 kg. body weight (150 min after i.v. 1 mg/kg): 98.0 mW
- HZV: heart minute volume, referred to 20 kg. body weight (150 min after i.v. 1 mg/kg): 3.89 L/min
- LVEDP: end diastolic pressure in the left ventricle (150 min after i.v. 1 mg/kg): 6.97 mm.Hg
- PAP: average pressure in the A. pulmonalis (150 min after i.v. 1 mg/kg): 15.1 ±1.5 mm.Hg
- PRA: pressure in the right atrium (150 min after i.v. 1 mg/kg): 4.03 mm.Hg
- SV: beat volume, referred to 20 kg. body weight (150 min after i.v. 1 mg/kg): 41.0 mL
- WAP: pulmonalis resistance, referred to 20 kg. body weight (150 min after i.v. 1 mg/kg): 0.27 U
- WFem: femoralis resistance, referred to 20 kg. body weight (150 min after i.v. 1 mg/kg): 0.26 KU
- WTP: total peripheral resistance, referred to 20 kg. body weight (150 min after i.v. 1 mg/kg): 3.73 U
- dp/dt: rate of pressure increase in the left ventricle (150 min after i.v. 1 mg/kg): 1950.0 mm.Hg/sec.
- APdiast: diastolic aorta pressure (180 min after i.v. 1 mg/kg): 91.9 mm.Hg
- APsyst: systolic aorta pressure (180 min after i.v. 1 mg/kg): 143.4 mm.Hg
- BFFem: blood flow in the A. femoralis, referred to 20 kg. body weight (180 min after i.v. 1 mg/kg): 59.4 mL/min
- HF: heart frequency (180 min after i.v. 1 mg/kg): 95.5 min⁻¹
- HLL: heart capacity left, referred to 20 kg. body weight (180 min after i.v. 1 mg/kg): 0.91 W
- HLR: heart capacity right, referred to 20 kg. body weight (180 min after i.v. 1 mg/kg): 98.5 mW
- HZV: heart minute volume, referred to 20 kg. body weight (180 min after i.v. 1 mg/kg): 4.03 L/min
- LVEDP: end diastolic pressure in the left ventricle (180 min after i.v. 1 mg/kg): 7.69 mm.Hg
- PAP: average pressure in the A. pulmonalis (180 min after i.v. 1 mg/kg): 14.9 ±1.3 mm.Hg
- PRA: pressure in the right atrium (180 min after i.v. 1 mg/kg): 4.12 mm.Hg
- SV: beat volume, referred to 20 kg. body weight (180 min after i.v. 1 mg/kg): 42.6 mL
- WAP: pulmonalis resistance, referred to 20 kg. body weight (180 min after i.v. 1 mg/kg): 0.24 U
- WFem: femoralis resistance, referred to 20 kg. body weight (180 min after i.v. 1 mg/kg): 0.24 KU
- WTP: total peripheral resistance, referred to 20 kg. body weight (180 min after i.v. 1 mg/kg): 3.51 U
- dp/dt: rate of pressure increase in the left ventricle (180 min after i.v. 1 mg/kg): 1593.7 mm.Hg/sec.
- APdiast: diastolic aorta pressure (before i.v. 1 mg/kg (v)): 88.1 mm.Hg
- APsyst: systolic aorta pressure (before i.v. 1 mg/kg (v)): 150.9 mm.Hg
- BFFem: blood flow in the A. femoralis, referred to 20 kg. body weight (before i.v. 1 mg/kg (v)): 53.4 mL/min
- HF: heart frequency (before i.v. 1 mg/kg (v)): 97.5 min⁻¹
- HLL: heart capacity left, referred to 20 kg. body weight (before i.v. 1 mg/kg (v)): 0.83 W
- HLR: heart capacity right, referred to 20 kg. body weight (before i.v. 1 mg/kg (v)): 96.0 mW
- HZV: heart minute volume, referred to 20 kg. body weight (before i.v. 1 mg/kg (v)): 3.61 L/min
- LVEDP: end diastolic pressure in the left ventricle (before i.v. 1 mg/kg (v)): 5.53 mm.Hg
- PAP: average pressure in the A. pulmonalis (before i.v. 1 mg/kg (v)): 15.8 ±1.4 mm.Hg
- PRA: pressure in the right atrium (before i.v. 1 mg/kg (v)): 3.94 mm.Hg
- SV: beat volume, referred to 20 kg. body weight (before i.v. 1 mg/kg (v)): 38.3 mL
- WAP: pulmonalis resistance, referred to 20 kg. body weight (before i.v. 1 mg/kg (v)): 0.38 U
- WFem: femoralis resistance, referred to 20 kg. body weight (before i.v. 1 mg/kg (v)): 0.28 KU
- WTP: total peripheral resistance, referred to 20 kg. body weight (before i.v. 1 mg/kg (v)): 3.94 U
- dp/dt: rate of pressure increase in the left ventricle (before i.v. 1 mg/kg (v)): 2081.2 mm.Hg/sec.
